According to patent US20090232909A1, “Method for determining physiological effects of hemoglobin” (priority 1999, published 2009):
“Also recorded” adds a separate entry of the source.

How the values were obtained:
Hb = Hb (Homo sapiens, UniProt P68871+P69905); settings: cited from earlier work
myoglobin = settings: cited from earlier work
RBC membrane thiols = test: Alkylation of IOV proteins with 14C-iodoacetamide; assay type: biochemical; settings: DIDS-modified vs unmodified IOVs
Source text: FIG. 8G is a fluorographic image of proteins on an SDS-polyacrylamide gel following electrophoresis. […] The position of AE1 on the gel, determined by Western blotting, is indicated. (n=3-8 for A-F).
Thus, inhibition of transnitrosylation by DIDS supports the conclusion that AE1 is the principal acceptor of NO groups transferred from SNO-Hb to the RBC membrane.

AE1 = target: T1, AE1 (Homo sapiens, UniProt P02730); test: SNO content of AE1 immunoprecipitates from IOV and RBC membrane extracts; assay type: biochemical; settings: RBCs treated with 0.1 mM DIDS before NO
T1 construct: immunoprecipitated AE1 with monoclonal antibodies, and measured NO in immunoprecipitates (IPs); endogenous in cells; host or cells: RBCs (fresh venous blood) and IOVs from outdated RBCs; TX-100 or NP-40 extracts
T1 sequence (P02730 1-911): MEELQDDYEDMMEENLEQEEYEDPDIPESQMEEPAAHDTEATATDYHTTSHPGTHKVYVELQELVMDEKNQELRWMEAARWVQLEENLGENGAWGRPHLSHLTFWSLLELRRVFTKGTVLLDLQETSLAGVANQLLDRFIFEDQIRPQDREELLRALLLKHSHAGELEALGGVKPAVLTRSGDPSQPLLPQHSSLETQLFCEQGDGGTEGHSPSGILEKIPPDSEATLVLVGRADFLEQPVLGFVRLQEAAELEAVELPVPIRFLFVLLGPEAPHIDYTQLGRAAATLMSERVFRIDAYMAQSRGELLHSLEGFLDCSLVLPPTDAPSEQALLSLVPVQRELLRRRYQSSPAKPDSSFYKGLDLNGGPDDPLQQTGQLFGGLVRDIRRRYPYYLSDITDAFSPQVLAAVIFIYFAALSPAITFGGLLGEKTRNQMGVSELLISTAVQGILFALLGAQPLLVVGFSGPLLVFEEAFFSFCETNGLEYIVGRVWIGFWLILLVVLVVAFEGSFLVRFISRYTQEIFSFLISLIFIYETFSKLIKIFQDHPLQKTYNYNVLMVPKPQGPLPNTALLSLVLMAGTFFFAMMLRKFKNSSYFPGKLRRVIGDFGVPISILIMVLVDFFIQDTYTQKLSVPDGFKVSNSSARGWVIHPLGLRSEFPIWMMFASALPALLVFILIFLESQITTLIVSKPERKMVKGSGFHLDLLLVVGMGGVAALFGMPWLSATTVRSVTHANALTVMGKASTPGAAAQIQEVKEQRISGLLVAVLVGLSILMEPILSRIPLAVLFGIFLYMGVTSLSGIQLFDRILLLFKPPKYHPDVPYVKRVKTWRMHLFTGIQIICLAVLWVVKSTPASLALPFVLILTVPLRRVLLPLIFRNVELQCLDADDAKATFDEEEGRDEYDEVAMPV
Procedure: Immunoprecipitation was carried out by incubation of TX-100 or NP-40 extracts with antibodies followed by protein G-Sepharose. We employed two monoclonal anti-AE1 antibodies (Sigma, clone BIII-136, and kindly provided by M. Telen) that recognized epitopes in the cytoplasmic domain and that produced indistinguishable results. Immune complexes were eluted with 10 mM glycine at pH 3.0, and eluates were adjusted immediately to pH 7.4 followed by photolysis/chemiluminescence. Efficiency of immunoprecipitation was confirmed by Western blotting. Binding of SNO-Hb to IOVs was assessed in 10 mM MOPS buffer, pH 7, at room temperature and 21% O2. Incubation was for 15 mins before IOVs were solubilized in 1% TX-100, and heme content was assessed spectrophotometrically. When employed, RBCs were treated for 60 mins with DIDS (0.1 mM; calculated 10-fold molar excess over AE1), then washed thoroughly to remove unreacted DIDS. RBCs were then exposed to NO (as above) or used to prepare DIDS-modified IOVs (as above).
To assess this mechanism, we incubated IOVs with free or Sepharose-bound NO-Hb and also treated RBCs with NO(NO:heme ratio of 1:250), prepared TX-100 or NP-40 extracts of IOVs and RBC membranes, immunoprecipitated AE1 with monoclonal antibodies, and measured NO in immunoprecipitates (IPs). […] SNO was detected at negligible levels in IPs generated with a non-specific mouse IgG (FIGS. 8A-8C). […]

Sequence of Hb (P69905 2-142 limits assumed): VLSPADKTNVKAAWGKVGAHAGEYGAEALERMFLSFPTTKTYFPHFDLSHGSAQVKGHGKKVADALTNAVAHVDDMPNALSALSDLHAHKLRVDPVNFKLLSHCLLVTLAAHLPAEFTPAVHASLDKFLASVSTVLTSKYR
Sequence of Hb (P68871 2-147 limits assumed): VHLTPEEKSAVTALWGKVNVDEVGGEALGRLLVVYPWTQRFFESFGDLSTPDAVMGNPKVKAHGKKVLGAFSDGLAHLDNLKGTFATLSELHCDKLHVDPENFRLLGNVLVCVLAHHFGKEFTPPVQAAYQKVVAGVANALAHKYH

Structure (SMILES)	rate constant of NO-mediated oxidation of oxyHb to metHb (Hb) [M⁻¹ s⁻¹]	rate constant of binding of NO to unoccupied hemes in Hb (Hb) [M⁻¹ s⁻¹]	rate of NO binding to ferrous myoglobin (myoglobin) [M⁻¹ s⁻¹]	rate of NO oxidation of oxymyoglobin (myoglobin)	direct modification of sulfhydryls (RBC membrane thiols)	effect on SNO content of AE1 IPs from RBC membrane extracts (AE1)
[N]=O [NO, nitric oxide]	3.7e+07	2.6e+07	2.5e+07	3.4×10^7 M^−1 sect^−1		
O=S(=O)(O)c1cc(N=C=S)ccc1C=Cc1ccc(N=C=S)cc1S(=O)(=O)O [DIDS, 4,4′-diisothiocyanatostilbene-2,2′-disulfonic acid]					did not modify sulfhydryls directly; also recorded: does not directly reduce reactivity	reduced substantially; also recorded: greatly reduced
